Legend:
Assay in all cases: KINOMEscan competition binding
[1] = target: CHEK1 (human) (UniProt O14757)
[2] = target: RIPK4 (human) (UniProt P57078)
[3] = target: MAPK6 (human) (UniProt Q16659)
[4] = target: NTRK2 (human) (UniProt Q16620)
[5] = system: KIT (human), P10721 [A829P]
[6] = target: PRKCE (human) (UniProt Q02156)
[7] = target: PLK1 (human) (UniProt P53350)
[8] = target: YSK4 (human) (UniProt Q56UN5)
[9] = target: MAP3K13 (human) (UniProt O43283)
[10] = target: MAP2K2 (human) (UniProt P36507)
[11] = target: LATS1 (human) (UniProt O95835)
[12] = target: EPHB4 (human) (UniProt P54760)
[13] = target: TNK1 (human) (UniProt Q13470)
[14] = target: PKN3 (M.tuberculosis) (UniProt Q6P5Z2)
Sequence of PKN3 (M.tuberculosis) (Q6P5Z2 whole entry, looked up): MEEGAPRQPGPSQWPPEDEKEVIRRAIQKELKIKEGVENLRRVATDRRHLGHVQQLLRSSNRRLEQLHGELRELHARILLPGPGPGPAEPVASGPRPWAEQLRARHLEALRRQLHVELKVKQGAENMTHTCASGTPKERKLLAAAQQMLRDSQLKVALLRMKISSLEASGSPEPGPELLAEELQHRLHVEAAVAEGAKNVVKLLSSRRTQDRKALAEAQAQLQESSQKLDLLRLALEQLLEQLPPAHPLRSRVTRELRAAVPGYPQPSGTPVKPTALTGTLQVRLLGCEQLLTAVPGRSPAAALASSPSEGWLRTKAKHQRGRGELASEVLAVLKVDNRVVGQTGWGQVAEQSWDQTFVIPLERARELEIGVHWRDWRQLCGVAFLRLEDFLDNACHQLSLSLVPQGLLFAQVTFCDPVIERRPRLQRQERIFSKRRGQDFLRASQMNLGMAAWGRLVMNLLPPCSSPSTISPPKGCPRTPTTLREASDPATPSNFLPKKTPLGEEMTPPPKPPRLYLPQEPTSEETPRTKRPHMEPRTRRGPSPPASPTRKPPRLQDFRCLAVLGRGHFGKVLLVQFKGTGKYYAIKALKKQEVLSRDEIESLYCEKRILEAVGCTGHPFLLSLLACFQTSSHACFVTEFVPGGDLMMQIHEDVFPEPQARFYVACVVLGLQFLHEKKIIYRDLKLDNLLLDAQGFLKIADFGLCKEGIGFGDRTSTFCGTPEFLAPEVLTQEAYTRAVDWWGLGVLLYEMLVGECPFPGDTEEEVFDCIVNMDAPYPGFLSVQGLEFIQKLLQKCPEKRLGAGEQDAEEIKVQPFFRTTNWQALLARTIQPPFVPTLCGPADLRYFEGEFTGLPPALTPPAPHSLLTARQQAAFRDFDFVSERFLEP

[15] = target: TYK2 JH1 catalytic (human) (UniProt P29597)
[16] = target: MAPK4 (human) (UniProt P31152)
Sequence of MAPK4 (human) (P31152 whole entry, looked up): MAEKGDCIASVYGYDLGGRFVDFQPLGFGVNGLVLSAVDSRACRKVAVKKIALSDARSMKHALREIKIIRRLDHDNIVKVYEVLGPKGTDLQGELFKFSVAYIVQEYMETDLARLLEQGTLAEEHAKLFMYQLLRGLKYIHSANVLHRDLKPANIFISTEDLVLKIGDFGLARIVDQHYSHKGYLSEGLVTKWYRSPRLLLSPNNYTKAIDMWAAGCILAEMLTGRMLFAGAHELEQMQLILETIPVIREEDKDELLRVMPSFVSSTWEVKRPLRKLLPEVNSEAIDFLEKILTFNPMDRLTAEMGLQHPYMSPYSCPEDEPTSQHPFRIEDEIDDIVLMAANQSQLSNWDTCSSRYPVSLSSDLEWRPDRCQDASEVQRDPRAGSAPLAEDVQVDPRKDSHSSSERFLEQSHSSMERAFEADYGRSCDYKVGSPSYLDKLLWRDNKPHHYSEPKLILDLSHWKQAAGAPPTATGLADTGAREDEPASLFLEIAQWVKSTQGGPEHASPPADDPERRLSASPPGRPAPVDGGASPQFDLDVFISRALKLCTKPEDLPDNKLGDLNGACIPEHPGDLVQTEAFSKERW

[17] = target: CSNK2A2 (human) (UniProt P19784)
Sequence of CSNK2A2 (human) (P19784 whole entry, looked up): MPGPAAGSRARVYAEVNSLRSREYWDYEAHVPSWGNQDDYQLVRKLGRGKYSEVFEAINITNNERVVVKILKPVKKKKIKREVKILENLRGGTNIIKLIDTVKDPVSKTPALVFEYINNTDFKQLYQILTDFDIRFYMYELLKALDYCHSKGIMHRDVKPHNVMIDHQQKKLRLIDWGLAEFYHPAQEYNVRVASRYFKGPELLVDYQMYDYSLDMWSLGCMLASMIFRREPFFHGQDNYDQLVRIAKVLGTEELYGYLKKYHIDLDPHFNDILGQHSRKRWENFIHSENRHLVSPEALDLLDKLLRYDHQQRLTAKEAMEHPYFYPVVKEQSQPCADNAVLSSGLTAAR

[18] = target: PIP4K2B (human) (UniProt P78356)
[19] = target: IGF1R (human) (UniProt P08069)
[20] = target: EPHA3 (human) (UniProt P29320)
[21] = target: DCLK1 (human) (UniProt O15075)
[22] = system: KIT (human), P10721 [D816H]
[23] = target: CDK4 CCND1 (human) (UniProt P11802+P24385)
[24] = system: EGFR (human), P00533 [747-751 del / S ins]
[25] = target: CLK1 (human) (UniProt P49759)
[26] = target: LATS2 (human) (UniProt Q9NRM7)
[27] = target: EPHA7 (human) (UniProt Q15375)
[28] = target: GRK7 (human) (UniProt Q8WTQ7)
Sequence of GRK7 (human) (Q8WTQ7 whole entry, looked up): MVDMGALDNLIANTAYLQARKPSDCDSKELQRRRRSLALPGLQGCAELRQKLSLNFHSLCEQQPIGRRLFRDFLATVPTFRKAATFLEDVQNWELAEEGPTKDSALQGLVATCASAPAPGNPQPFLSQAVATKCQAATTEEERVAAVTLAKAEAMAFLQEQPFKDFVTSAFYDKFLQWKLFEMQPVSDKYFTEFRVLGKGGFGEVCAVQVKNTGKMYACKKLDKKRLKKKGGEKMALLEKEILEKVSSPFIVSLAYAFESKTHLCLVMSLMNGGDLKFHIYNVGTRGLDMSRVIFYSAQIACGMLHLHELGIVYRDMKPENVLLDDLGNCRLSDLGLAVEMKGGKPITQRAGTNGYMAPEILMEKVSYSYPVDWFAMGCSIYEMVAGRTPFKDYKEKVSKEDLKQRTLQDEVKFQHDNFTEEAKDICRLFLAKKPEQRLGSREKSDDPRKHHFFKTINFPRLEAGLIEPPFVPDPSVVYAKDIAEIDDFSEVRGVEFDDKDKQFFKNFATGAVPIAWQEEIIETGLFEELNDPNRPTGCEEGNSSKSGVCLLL

[29] = target: RPS6KA1 KD1 (human) (UniProt Q15418)
[30] = target: MST1R (human) (UniProt Q04912)
[31] = target: SRMS (human) (UniProt Q9H3Y6)
Sequence of SRMS (human) (Q9H3Y6 whole entry, looked up): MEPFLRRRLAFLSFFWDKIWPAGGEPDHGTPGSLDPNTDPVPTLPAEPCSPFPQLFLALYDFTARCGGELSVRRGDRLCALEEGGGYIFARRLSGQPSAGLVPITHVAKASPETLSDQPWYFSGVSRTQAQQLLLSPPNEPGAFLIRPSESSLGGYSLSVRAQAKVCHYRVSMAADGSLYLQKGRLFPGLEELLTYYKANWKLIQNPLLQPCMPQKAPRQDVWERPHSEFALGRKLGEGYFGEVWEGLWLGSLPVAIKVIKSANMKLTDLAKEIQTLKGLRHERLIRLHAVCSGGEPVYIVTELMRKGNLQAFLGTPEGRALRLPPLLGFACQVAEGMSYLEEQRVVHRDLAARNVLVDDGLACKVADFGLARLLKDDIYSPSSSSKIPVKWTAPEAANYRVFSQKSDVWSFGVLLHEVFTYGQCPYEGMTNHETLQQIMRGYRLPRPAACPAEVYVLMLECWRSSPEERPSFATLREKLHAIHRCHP

[32] = target: MAP3K5 (human) (UniProt Q99683)
[33] = target: MAP4K4 (human) (UniProt O95819)
[34] = target: PDPK1 (human) (UniProt O15530)
[35] = target: TNK2 (human) (UniProt Q07912)
[36] = target: MAP3K3 (human) (UniProt Q99759)
[37] = system: PIK3CA (human), P42336 [E542K]
[38] = target: ERN1 (human) (UniProt O75460)
[39] = target: DDR2 (human) (UniProt Q16832)
[40] = target: MAP3K9 (human) (UniProt P80192)
[41] = target: CSNK1D (human) (UniProt P48730)
[42] = target: TESK1 (human) (UniProt Q15569)

Sequence of YSK4 (human) (Q56UN5 whole entry, looked up): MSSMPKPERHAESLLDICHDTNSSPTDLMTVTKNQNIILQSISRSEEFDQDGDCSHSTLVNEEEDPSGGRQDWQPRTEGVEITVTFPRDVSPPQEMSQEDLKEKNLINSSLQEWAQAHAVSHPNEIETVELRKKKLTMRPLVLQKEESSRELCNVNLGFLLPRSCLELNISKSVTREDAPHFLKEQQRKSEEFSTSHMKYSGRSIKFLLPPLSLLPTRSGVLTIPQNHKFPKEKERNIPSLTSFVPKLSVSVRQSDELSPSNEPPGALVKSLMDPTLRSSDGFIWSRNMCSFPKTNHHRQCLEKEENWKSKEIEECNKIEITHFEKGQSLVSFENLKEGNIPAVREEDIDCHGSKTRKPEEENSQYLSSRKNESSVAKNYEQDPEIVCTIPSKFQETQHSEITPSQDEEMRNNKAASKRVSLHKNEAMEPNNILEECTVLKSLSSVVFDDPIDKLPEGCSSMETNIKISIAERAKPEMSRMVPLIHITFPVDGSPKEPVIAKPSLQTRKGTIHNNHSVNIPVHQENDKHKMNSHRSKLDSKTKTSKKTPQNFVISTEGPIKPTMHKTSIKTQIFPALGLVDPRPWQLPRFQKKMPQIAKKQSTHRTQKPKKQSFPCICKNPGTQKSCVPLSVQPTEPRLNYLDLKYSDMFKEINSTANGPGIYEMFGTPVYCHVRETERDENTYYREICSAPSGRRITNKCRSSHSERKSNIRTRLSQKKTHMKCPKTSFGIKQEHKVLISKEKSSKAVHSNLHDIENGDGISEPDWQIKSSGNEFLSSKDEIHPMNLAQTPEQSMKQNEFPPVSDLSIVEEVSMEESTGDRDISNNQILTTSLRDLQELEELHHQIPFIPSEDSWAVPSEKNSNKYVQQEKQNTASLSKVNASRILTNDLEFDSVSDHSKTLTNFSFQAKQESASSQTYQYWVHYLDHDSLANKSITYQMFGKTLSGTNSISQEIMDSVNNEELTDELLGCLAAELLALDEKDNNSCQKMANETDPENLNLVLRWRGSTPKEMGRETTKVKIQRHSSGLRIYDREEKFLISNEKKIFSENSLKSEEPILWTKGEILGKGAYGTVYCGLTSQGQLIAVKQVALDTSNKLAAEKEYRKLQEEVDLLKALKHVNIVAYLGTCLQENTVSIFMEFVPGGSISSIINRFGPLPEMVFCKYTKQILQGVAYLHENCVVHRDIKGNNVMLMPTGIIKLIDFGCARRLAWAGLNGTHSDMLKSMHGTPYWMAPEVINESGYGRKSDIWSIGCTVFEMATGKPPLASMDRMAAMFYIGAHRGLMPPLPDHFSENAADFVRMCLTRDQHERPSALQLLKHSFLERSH
Sequence of CHEK1 (human) (O14757 whole entry, looked up): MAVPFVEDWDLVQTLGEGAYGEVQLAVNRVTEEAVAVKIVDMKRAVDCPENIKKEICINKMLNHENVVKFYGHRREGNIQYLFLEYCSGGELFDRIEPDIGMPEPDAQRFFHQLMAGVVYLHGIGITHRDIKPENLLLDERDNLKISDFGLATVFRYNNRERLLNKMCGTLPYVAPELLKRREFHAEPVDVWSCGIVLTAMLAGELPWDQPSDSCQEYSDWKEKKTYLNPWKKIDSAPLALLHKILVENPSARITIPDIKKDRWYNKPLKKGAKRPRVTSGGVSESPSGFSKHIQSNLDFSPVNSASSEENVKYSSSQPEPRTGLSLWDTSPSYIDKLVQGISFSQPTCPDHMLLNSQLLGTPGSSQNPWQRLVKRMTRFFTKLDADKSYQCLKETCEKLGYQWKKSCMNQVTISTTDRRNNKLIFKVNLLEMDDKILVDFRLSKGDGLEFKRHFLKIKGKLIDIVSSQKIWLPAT

`Cc1cc(NC(=O)c2cccc(NC(=O)/C=C/CN(C)C)c2)ccc1Nc1nccc(-c2cccnc2)n1` showed a kinase still bound, per cent of control ([1]; compound 1.0 µM) of 98%, a kinase still bound, per cent of control ([2]; compound 1.0 µM) of 79% and a kinase still bound, per cent of control ([3]; compound 1.0 µM) of 37%. The kinase still bound, per cent of control ([4]; compound 1.0 µM) was 96%, the kinase still bound, per cent of control ([5]; compound 1.0 µM) was 69% and the kinase still bound, per cent of control ([6]; compound 1.0 µM) was 81%. For the same compound, the kinase still bound, per cent of control ([7]; compound 1.0 µM) was 100%, the kinase still bound, per cent of control ([8]; compound 1.0 µM) was 65% and the kinase still bound, per cent of control ([9]; compound 1.0 µM) was 93%. For the same compound, the kinase still bound, per cent of control ([10]; compound 1.0 µM) was 91%, the kinase still bound, per cent of control ([11]; compound 1.0 µM) was 91% and the kinase still bound, per cent of control ([12]; compound 1.0 µM) was 100%. It also gave a kinase still bound, per cent of control ([13]; compound 1.0 µM) of 60%, a kinase still bound, per cent of control ([14]; compound 1.0 µM) of 100% and a kinase still bound, per cent of control ([15]; compound 1.0 µM) of 96%. The kinase still bound, per cent of control ([16]; compound 1.0 µM) was 81%, the kinase still bound, per cent of control ([17]; compound 1.0 µM) was 39% and the kinase still bound, per cent of control ([18]; compound 1.0 µM) was 99%. For the same compound, the kinase still bound, per cent of control ([19]; compound 1.0 µM) was 93%, the kinase still bound, per cent of control ([20]; compound 1.0 µM) was 67% and the kinase still bound, per cent of control ([21]; compound 1.0 µM) was 100%. It also gave a kinase still bound, per cent of control ([22]; compound 1.0 µM) of 68%, a kinase still bound, per cent of control ([23]; compound 1.0 µM) of 92% and a kinase still bound, per cent of control ([24]; compound 1.0 µM) of 95%. It also gave a kinase still bound, per cent of control ([25]; compound 1.0 µM) of 100%, a kinase still bound, per cent of control ([26]; compound 1.0 µM) of 74% and a kinase still bound, per cent of control ([27]; compound 1.0 µM) of 100%. The kinase still bound, per cent of control ([28]; compound 1.0 µM) was 72%, the kinase still bound, per cent of control ([29]; compound 1.0 µM) was 99% and the kinase still bound, per cent of control ([30]; compound 1.0 µM) was 100%. For the same compound, the kinase still bound, per cent of control ([31]; compound 1.0 µM) was 94%, the kinase still bound, per cent of control ([32]; compound 1.0 µM) was 100% and the kinase still bound, per cent of control ([33]; compound 1.0 µM) was 92%. For the same compound, the kinase still bound, per cent of control ([34]; compound 1.0 µM) was 61%, the kinase still bound, per cent of control ([35]; compound 1.0 µM) was 90% and the kinase still bound, per cent of control ([36]; compound 1.0 µM) was 95%. For the same compound, the kinase still bound, per cent of control ([37]; compound 1.0 µM) was 100%, the kinase still bound, per cent of control ([38]; compound 1.0 µM) was 73% and the kinase still bound, per cent of control ([39]; compound 1.0 µM) was 89%. For the same compound, the kinase still bound, per cent of control ([40]; compound 1.0 µM) was 100%, the kinase still bound, per cent of control ([41]; compound 1.0 µM) was 18% and the kinase still bound, per cent of control ([42]; compound 1.0 µM) was 100%.
With `Cc1ccc(NC(=O)c2ccc(NC(=O)/C=C/CN(C)C)cc2)cc1Nc1nccc(-c2cccnc2)n1` the kinase still bound, per cent of control ([1]; compound 10.0 µM) was 100%, the kinase still bound, per cent of control ([2]; compound 10.0 µM) was 97% and the kinase still bound, per cent of control ([3]; compound 10.0 µM) was 85%. The kinase still bound, per cent of control ([4]; compound 10.0 µM) was 67%, the kinase still bound, per cent of control ([5]; compound 10.0 µM) was 17% and the kinase still bound, per cent of control ([6]; compound 10.0 µM) was 100%. It also gave a kinase still bound, per cent of control ([7]; compound 10.0 µM) of 83%, a kinase still bound, per cent of control ([8]; compound 10.0 µM) of 28% and a kinase still bound, per cent of control ([9]; compound 10.0 µM) of 89%. It also gave a kinase still bound, per cent of control ([10]; compound 10.0 µM) of 74%, a kinase still bound, per cent of control ([11]; compound 10.0 µM) of 100% and a kinase still bound, per cent of control ([12]; compound 10.0 µM) of 100%. It also gave a kinase still bound, per cent of control ([13]; compound 10.0 µM) of 8.7%, a kinase still bound, per cent of control ([14]; compound 10.0 µM) of 86% and a kinase still bound, per cent of control ([15]; compound 10.0 µM) of 92%. The kinase still bound, per cent of control ([16]; compound 10.0 µM) was 100%, the kinase still bound, per cent of control ([17]; compound 10.0 µM) was 21% and the kinase still bound, per cent of control ([18]; compound 10.0 µM) was 69%. The kinase still bound, per cent of control ([19]; compound 10.0 µM) was 100%, the kinase still bound, per cent of control ([20]; compound 10.0 µM) was 83% and the kinase still bound, per cent of control ([21]; compound 10.0 µM) was 84%. For the same compound, the kinase still bound, per cent of control ([22]; compound 10.0 µM) was 29%, the kinase still bound, per cent of control ([23]; compound 10.0 µM) was 100% and the kinase still bound, per cent of control ([24]; compound 10.0 µM) was 50%. It also gave a kinase still bound, per cent of control ([25]; compound 10.0 µM) of 24%, a kinase still bound, per cent of control ([26]; compound 10.0 µM) of 100% and a kinase still bound, per cent of control ([27]; compound 10.0 µM) of 99%. The kinase still bound, per cent of control ([28]; compound 10.0 µM) was 82%, the kinase still bound, per cent of control ([29]; compound 10.0 µM) was 63% and the kinase still bound, per cent of control ([30]; compound 10.0 µM) was 100%. For the same compound, the kinase still bound, per cent of control ([31]; compound 10.0 µM) was 71%, the kinase still bound, per cent of control ([32]; compound 10.0 µM) was 100% and the kinase still bound, per cent of control ([33]; compound 10.0 µM) was 78%. It also gave a kinase still bound, per cent of control ([34]; compound 10.0 µM) of 100%, a kinase still bound, per cent of control ([35]; compound 10.0 µM) of 98% and a kinase still bound, per cent of control ([36]; compound 10.0 µM) of 81%. It also gave a kinase still bound, per cent of control ([37]; compound 10.0 µM) of 100%, a kinase still bound, per cent of control ([38]; compound 10.0 µM) of 98% and a kinase still bound, per cent of control ([39]; compound 10.0 µM) of 0.9%. The kinase still bound, per cent of control ([40]; compound 10.0 µM) was 100%, the kinase still bound, per cent of control ([41]; compound 10.0 µM) was 54% and the kinase still bound, per cent of control ([42]; compound 10.0 µM) was 100%.

From the kinase profiling compilation of Christmann-Franck et al. (2016)
